Experimental data reported in ChEMBL document CHEMBL1201862, “PubChem BioAssay data set” (2004).
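Grown in 96-well plates, cells were treated for 48 hours with each compound at five concentrations. Insufficient inhibition: endpoint recorded as highest concentration tested. The concentration for 50% growth inhibition is given as GI50.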 Activity calls are given as the source filed them. Rule as the data show it: active = GI50 up to about 1.1 µM and inactive = higher.

Columns and labels:
Assay in all cases: growth of human tumour cells (NCI), 48 h
SR = system: SR
SF-268 = system: SF-268
OVCAR-8 = system: OVCAR-8
SNB-75 = system: SNB-75
TK-10 = system: TK-10
HCT-116 = system: HCT-116
NCI-H226 = system: NCI-H226
UACC-257 = system: UACC-257
Hs-578T = system: Hs-578T
NCI/ADR-RES = system: NCI/ADR-RES
SF-295 = system: SF-295
RPMI-8226 = system: RPMI-8226
MDA-N = system: MDA-N
SK-OV-3 = system: SK-OV-3
NCI-H460 = system: NCI-H460
SK-MEL-5 = system: SK-MEL-5
NCI-H522 = system: NCI-H522
A549 = system: A549
786-0 = system: 786-0
CCRF-CEM = system: CCRF-CEM

Measured: GI50

N#C/C(=C\N1CCNC1=S)C(=O)c1ccc2ccccc2c1
inactive: SR 71.4 µM | SF-268 > 100 µM | OVCAR-8 > 100 µM | SNB-75 > 100 µM | TK-10 > 100 µM | HCT-116 > 100 µM | NCI-H226 > 100 µM | UACC-257 > 100 µM | Hs-578T > 100 µM | NCI/ADR-RES > 100 µM | SF-295 > 100 µM | RPMI-8226 89.7 µM | MDA-N > 100 µM | SK-OV-3 > 100 µM | NCI-H460 > 100 µM | SK-MEL-5 > 100 µM | NCI-H522 > 100 µM | A549 > 100 µM | 786-0 > 100 µM

O=S(=O)(O)c1ccc(/N=N/c2ccccc2)cc1
inactive: SR > 100 µM | SF-268 > 100 µM | OVCAR-8 > 100 µM | TK-10 > 100 µM | HCT-116 > 100 µM | NCI-H226 > 100 µM | UACC-257 > 100 µM | Hs-578T > 100 µM | NCI/ADR-RES > 100 µM | SF-295 > 100 µM | RPMI-8226 > 100 µM | MDA-N > 100 µM | SK-OV-3 > 100 µM | NCI-H460 > 100 µM | SK-MEL-5 > 100 µM | NCI-H522 > 100 µM | A549 > 100 µM | 786-0 > 100 µM | CCRF-CEM > 100 µM

C=C(Br)COc1ccc2c(C)cc(=O)oc2c1
inactive: SR 44.2 µM | SF-268 69 µM | OVCAR-8 47.9 µM | TK-10 45.9 µM | HCT-116 59.3 µM | NCI-H226 > 100 µM | UACC-257 73.5 µM | Hs-578T 90.6 µM | NCI/ADR-RES 47.4 µM | RPMI-8226 44.6 µM | MDA-N > 100 µM | NCI-H460 88.5 µM | SK-MEL-5 14.6 µM | NCI-H522 42.6 µM | A549 61.5 µM | 786-0 > 100 µM | CCRF-CEM > 100 µM

Nc1nc(-c2ccccc2)cc(-c2ccc(OCc3ccccc3)cc2O)n1
inactive: SR 39.8 µM | SF-268 44.3 µM | OVCAR-8 29.6 µM | SNB-75 67.6 µM | TK-10 24.7 µM | HCT-116 28.8 µM | NCI-H226 46.1 µM | UACC-257 48.8 µM | Hs-578T 37.1 µM | NCI/ADR-RES 29.4 µM | SF-295 36.4 µM | RPMI-8226 22.7 µM | MDA-N 39.3 µM | NCI-H460 40.4 µM | SK-MEL-5 17.5 µM | NCI-H522 20.5 µM | A549 33.4 µM | 786-0 40.9 µM | CCRF-CEM 17 µM

CC(C)CC(=O)NC(NC(C)C)(C(F)(F)F)C(F)(F)F
inactive: SR > 100 µM | SF-268 > 100 µM | OVCAR-8 > 100 µM | SNB-75 > 100 µM | TK-10 > 100 µM | HCT-116 > 100 µM | NCI-H226 > 100 µM | UACC-257 > 100 µM | Hs-578T > 100 µM | NCI/ADR-RES > 100 µM | RPMI-8226 > 100 µM | MDA-N > 100 µM | NCI-H460 > 100 µM | SK-MEL-5 > 100 µM | NCI-H522 > 100 µM | A549 > 100 µM | 786-0 > 100 µM | CCRF-CEM > 100 µM

COc1ccc(/N=C2\C(=N/c3ccc(OC)cc3)N(c3ccccc3[N+](=O)[O-])C(=S)N2c2ccc(OC)cc2)cc1
inactive: SR > 100 µM | SF-268 > 100 µM | OVCAR-8 > 100 µM | SNB-75 > 100 µM | TK-10 > 100 µM | HCT-116 35.6 µM | NCI-H226 61.9 µM | Hs-578T > 100 µM | NCI/ADR-RES > 100 µM | SF-295 51.8 µM | RPMI-8226 > 100 µM | MDA-N 49.8 µM | SK-OV-3 > 100 µM | SK-MEL-5 35.2 µM | NCI-H522 96.4 µM | A549 > 100 µM | 786-0 > 100 µM

CC1CCCC(C(=O)CC2CC(=O)NC(=O)C2)C1=O (stereo not drawn)
inactive: SR > 100 µM | SF-268 > 100 µM | OVCAR-8 > 100 µM | SNB-75 > 100 µM | TK-10 > 100 µM | HCT-116 > 100 µM | NCI-H226 > 100 µM | UACC-257 > 100 µM | Hs-578T > 100 µM | NCI/ADR-RES > 100 µM | SF-295 > 100 µM | RPMI-8226 > 100 µM | MDA-N > 100 µM | SK-OV-3 > 100 µM | NCI-H460 > 100 µM | SK-MEL-5 > 100 µM | A549 > 100 µM | 786-0 > 100 µM | CCRF-CEM > 100 µM

COC(=O)C1CCC(=O)N1C(c1cc(OC)c(OC)c(OC)c1)c1cccc2ccccc12 (stereo not drawn)
inactive: SR 32.7 µM | SF-268 15.3 µM | OVCAR-8 > 100 µM | SNB-75 61 µM | TK-10 > 100 µM | HCT-116 > 100 µM | NCI-H226 > 100 µM | UACC-257 > 100 µM | Hs-578T 6.44 µM | NCI/ADR-RES 39 µM | SF-295 > 100 µM | RPMI-8226 76.6 µM | MDA-N 60.5 µM | SK-OV-3 25.4 µM | NCI-H460 > 100 µM | NCI-H522 51.5 µM | A549 > 100 µM | 786-0 > 100 µM

[C-]#[N+]C1(C(=O)OCC)CC1
inactive: SR > 100 µM | SF-268 > 100 µM | OVCAR-8 > 100 µM | SNB-75 > 100 µM | TK-10 > 100 µM | HCT-116 > 100 µM | NCI-H226 > 100 µM | UACC-257 > 100 µM | Hs-578T > 100 µM | NCI/ADR-RES > 100 µM | SF-295 > 100 µM | RPMI-8226 > 100 µM | MDA-N > 100 µM | NCI-H460 > 100 µM | SK-MEL-5 > 100 µM | NCI-H522 > 100 µM | A549 > 100 µM | 786-0 > 100 µM | CCRF-CEM > 100 µM

COc1cccc(/N=N/C(=NNC(=O)c2ccc(C)cc2)c2ccc(N(C)C)cc2)c1
inactive: SR 62.5 µM | SF-268 > 100 µM | OVCAR-8 > 100 µM | TK-10 > 100 µM | HCT-116 > 100 µM | NCI-H226 > 100 µM | UACC-257 > 100 µM | Hs-578T > 100 µM | NCI/ADR-RES > 100 µM | SF-295 > 100 µM | RPMI-8226 > 100 µM | MDA-N 39.7 µM | SK-OV-3 > 100 µM | NCI-H460 > 100 µM | SK-MEL-5 98.2 µM | NCI-H522 > 100 µM | A549 > 100 µM | 786-0 > 100 µM | CCRF-CEM > 100 µM

O=[N+]([O-])/C(C(Cl)=C(Cl)Cl)=C1\NCCO1
inactive: SR > 100 µM | SF-268 > 100 µM | OVCAR-8 > 100 µM | TK-10 > 100 µM | HCT-116 87.5 µM | NCI-H226 39.3 µM | UACC-257 > 100 µM | Hs-578T 47.5 µM | NCI/ADR-RES > 100 µM | SF-295 > 100 µM | RPMI-8226 > 100 µM | MDA-N > 100 µM | SK-OV-3 > 100 µM | NCI-H460 > 100 µM | SK-MEL-5 > 100 µM | NCI-H522 > 100 µM | A549 > 100 µM | 786-0 > 100 µM | CCRF-CEM 22.9 µM
